The target in one series is Carbonic anhydrase 1 (Homo sapiens, UniProt P00915). The experiment in a line: Inhibition of human recombinant CA1 by phenol red dye based stopped flow CO2 hydration assay.
The next series addresses Carbonic anhydrase 9 (Homo sapiens, UniProt Q16790). The experiment in a line: Inhibition of human recombinant CA9 by phenol red dye based stopped flow CO2 hydration assay.
The next series has as its target Carbonic anhydrase 2 (Homo sapiens, UniProt P00918). The experiment in a line: Inhibition of human recombinant CA2 by phenol red dye based stopped flow CO2 hydration assay.
For a further series, the target named is Carbonic anhydrase 12 (Homo sapiens, UniProt O43570). The experiment in a line: Inhibition of human recombinant CA12 by phenol red dye based stopped flow CO2 hydration assay.
In series [1] the test system is HEK293. The experiment in a line: Cytotoxicity against HEK293 cells assessed as inhibition of cell growth at 77 uM by celltiter-glo assay. The series is classed as toxicity, cell-based. To be noted: human, hek293, 77 µM.
Series [2] can be described thus: Toxicity in female C57BL6/J mouse assessed as hematic pH at 10 mg/kg, ip administered daily for 2 weeks and measured 1 hr post last dose (reference value: 7.1). It is filed as organism-based. To be noted: in vivo, 336 h.
The test system of series [3] is HEK293. The experiment in a line: Cytotoxicity against HEK293 cells assessed as inhibition of cell growth at 46 uM by celltiter-glo assay. It is filed as toxicity, cell-based. To be noted: human, hek293, 46 µM.

Where only a bound is given, the exact number is not on record here.

Usually Ki stands for the equilibrium dissociation constant of an inhibitor or competing ligand from its target.

Sequence of Carbonic anhydrase 1 (P00915 whole entry): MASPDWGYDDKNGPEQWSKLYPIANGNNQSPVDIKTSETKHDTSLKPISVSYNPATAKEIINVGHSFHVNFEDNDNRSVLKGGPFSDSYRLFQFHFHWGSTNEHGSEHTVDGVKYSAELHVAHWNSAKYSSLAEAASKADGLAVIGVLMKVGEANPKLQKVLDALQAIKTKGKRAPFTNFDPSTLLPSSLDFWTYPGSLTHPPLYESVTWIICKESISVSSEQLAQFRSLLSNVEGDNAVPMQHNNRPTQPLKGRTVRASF
Sequence of Carbonic anhydrase 12 (O43570 whole entry): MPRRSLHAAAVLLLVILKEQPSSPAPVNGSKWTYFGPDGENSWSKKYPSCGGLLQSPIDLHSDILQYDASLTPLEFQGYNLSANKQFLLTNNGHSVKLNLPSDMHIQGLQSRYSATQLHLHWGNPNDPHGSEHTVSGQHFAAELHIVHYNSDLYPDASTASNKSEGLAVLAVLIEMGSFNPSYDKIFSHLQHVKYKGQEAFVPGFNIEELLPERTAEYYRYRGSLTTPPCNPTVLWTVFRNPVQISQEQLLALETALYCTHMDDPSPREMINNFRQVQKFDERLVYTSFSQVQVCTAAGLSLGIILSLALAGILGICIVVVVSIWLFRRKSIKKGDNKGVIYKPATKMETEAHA

As for `NS(=O)(=O)c1ccc(NC(=O)c2ccc3c(c2)no[n+]3[O-])cc1`, the inhibitory constant (Ki) is 0.792 µM on Carbonic anhydrase 1 and 0.0697 µM on Carbonic anhydrase 9.
As for `NS(=O)(=O)c1cccc(NC(=O)c2ccc3c(c2)no[n+]3[O-])c1`, the inhibition constant Ki on Carbonic anhydrase 1 was 7.66 µM; on Carbonic anhydrase 9 it was 0.0415 µM.
In the case of `N#CCCN(CCc1ccc(S(N)(=O)=O)cc1)C(=O)c1ccc2c(c1)no[n+]2[O-]`, the Ki on Carbonic anhydrase 9 came out at 0.0203 µM.
In the case of `O=C(Oc1ccc2oc(=O)ccc2c1)c1ccc2c(c1)no[n+]2[O-]`, the Ki at Carbonic anhydrase 1 was above 10 µM; on Carbonic anhydrase 9, 0.0158 µM.
For the compound `NS(=O)(=O)c1ccc(CCNC(=O)c2ccc3c(c2)no[n+]3[O-])cc1`, the Ki on Carbonic anhydrase 2 is 0.0901 µM; at Carbonic anhydrase 12, 0.0261 µM; at Carbonic anhydrase 1, 0.445 µM; at Carbonic anhydrase 9, 0.0126 µM.
On to `NS(=O)(=O)c1ccc(CCN(Cc2ccc(F)cc2)C(=O)c2ccc3c(c2)no[n+]3[O-])cc1`, for which the Activity entry in the series on HEK293 [1] is “Non-Toxic”.
Turning to `NS(=O)(=O)c1ccc(CCN(Cc2ccccc2)C(=O)c2ccc3c(c2)no[n+]3[O-])cc1`, the Ki at Carbonic anhydrase 1 was 0.618 µM; on Carbonic anhydrase 9, 0.0104 µM. In addition, the pH in series [2] turned out to be 6.9. Besides, the Activity entry in the series with HEK293 [3] is on record as “Non-Toxic”.
`NS(=O)(=O)c1ccc(OC(=O)c2ccc3c(c2)no[n+]3[O-])cc1`: the values for the Ki at Carbonic anhydrase 1 and on Carbonic anhydrase 9 were 0.736 µM and 0.0387 µM, respectively.
On the same counts, the results for `NS(=O)(=O)c1ccc(CNC(=O)c2ccc3c(c2)no[n+]3[O-])cc1` are 0.0831 µM and 0.0379 µM.
Take `NS(=O)(=O)c1cc(C(=O)O)c(NCc2ccco2)cc1Cl` [FUROSEMIDE]: the pH in series [2] worked out at 7.05.
As to `O=C(OCCCOc1ccc2oc(=O)ccc2c1)c1ccc2c(c1)no[n+]2[O-]`, at Carbonic anhydrase 9, the Ki was found to be 0.0485 µM.
Regarding `O=C(NCCOc1ccc2oc(=O)ccc2c1)c1ccc2c(c1)no[n+]2[O-]`, on Carbonic anhydrase 9, the Ki is 0.0236 µM.
On the same count and under the same terms, the figure for `O=C(Oc1ccc2ccc(=O)oc2c1)c1ccc2c(c1)no[n+]2[O-]` is 0.304 µM.
Turning to `O=C(O)c1ccc2c(c1)no[n+]2[O-]`, the Ki is 8.73 µM on Carbonic anhydrase 2, 0.995 µM at Carbonic anhydrase 12, above 10 µM at Carbonic anhydrase 1 and 2.65 µM on Carbonic anhydrase 9.
Consider `NS(=O)(=O)c1ccc(CCN(CCc2ccccc2)C(=O)c2ccc3c(c2)no[n+]3[O-])cc1`, for which the inhibition constant (Ki) at Carbonic anhydrase 1 was 0.831 µM; on Carbonic anhydrase 9 it was 0.0149 µM.
Take `O=C(NCCOc1ccc2ccc(=O)oc2c1)c1ccc2c(c1)no[n+]2[O-]`: on Carbonic anhydrase 1, the Ki is above 10 µM.
`NS(=O)(=O)c1ccc(O)c(NC(=O)c2ccc3c(c2)no[n+]3[O-])c1`: the figures for the Ki on Carbonic anhydrase 1 and on Carbonic anhydrase 9 were 8.45 µM and 0.0611 µM, respectively.
As to `O=C(OCCCOc1ccc2ccc(=O)oc2c1)c1ccc2c(c1)no[n+]2[O-]`, the inhibition constant Ki at Carbonic anhydrase 1 was above 10 µM.
In the case of `NS(=O)(=O)c1ccc(CCN(Cc2ccco2)C(=O)c2ccc3c(c2)no[n+]3[O-])cc1`, the Ki at Carbonic anhydrase 1 was 0.602 µM; on Carbonic anhydrase 9 it was 0.0231 µM.
Consider `O=C(OCCOc1ccc2ccc(=O)oc2c1)c1ccc2c(c1)no[n+]2[O-]`, for which the Ki is above 10 µM on Carbonic anhydrase 1 and 0.112 µM at Carbonic anhydrase 9.

The record behind these values is ChEMBL document CHEMBL5584355, “Harnessing Nitric Oxide-Donating Benzofuroxans for Targeted Inhibition of Carbonic Anhydrase IX in Cancer” (J Med Chem, 2024).
